# Calls of active or inactive are those of the source. No cut-off for these calls is given here.
# Legend:
# JIMT-1 [1] = assay: Antiproliferative activity against human JIMT1 cells after 72 hrs by SRB assay; assay type: functional, cell-based; settings: JIMT-1, 72 h
# MCF-10A [2] = assay: Antiproliferative activity against human MCF10A cells at 100 ug/ml after 72 hrs by SRB assay relative to control; assay type: cell-based
# SK-BR-3 [3] = assay: Antiproliferative activity against human SK-BR-3 cells at 100 ug/ml after 72 hrs by SRB assay relative to control; assay type: functional
# LoVo [4] = assay: Antiproliferative activity against human LoVo cells after 72 hrs by SRB assay; assay type: functional, cell-based
# [5] = Antiproliferative activity against human LoVo/DX cells after 72 hrs by SRB assay; assay type: functional, cell-based
# [6] = Resistance index, ratio of IC50 for human LoVo/DX cells to IC50 for human LoVo cells; assay type: functional
# MCF7 = assay: Antiproliferative activity against human MCF7 cells after 72 hrs by SRB assay; assay type: functional, cell-based; settings: MCF7, 72 h
# [7] = Antiproliferative activity against human ALL5 cells at 10 uM after 120 hrs by MTT assay relative to control; assay type: functional
# [8] = Cell cycle arrest in human ALL5 cells assessed as accumulation at S-phase at 5 times antiproliferative IC50 after 24 hrs by propidium iodide staining based flow cytometry (reference value: 6.76%); assay type: functional
# [9] = Cell cycle arrest in human ALL5 cells assessed as accumulation at G2/M-phase at 5 times antiproliferative IC50 after 96 hrs by propidium iodide staining based flow cytometry (reference value: 11.1%); assay type: functional
# SK-BR-3 [10] = assay: Antiproliferative activity against human SK-BR-3 cells after 72 hrs by SRB assay; assay type: functional, cell-based; settings: SK-BR-3, 72 h
# [11] = Cell cycle arrest in human ALL5 cells assessed as accumulation at G0/G1 phase at 5 times antiproliferative IC50 after 48 hrs by propidium iodide staining based flow cytometry (reference value: 69.6%); assay type: functional
# [12] = Cell cycle arrest in human ALL5 cells assessed as accumulation at G0/G1 phase at 5 times antiproliferative IC50 after 24 hrs by propidium iodide staining based flow cytometry (reference value: 79.7%); assay type: functional
# [13] = Cell cycle arrest in human ALL5 cells assessed as accumulation at sub-G1 phase at 5 times antiproliferative IC50 after 96 hrs by propidium iodide staining based flow cytometry (reference value: 12%); assay type: functional
# [14] = Cell cycle arrest in human ALL5 cells assessed as accumulation at S-phase at 5 times antiproliferative IC50 after 96 hrs by propidium iodide staining based flow cytometry (reference value: 7.52%); assay type: functional
# [15] = Cell cycle arrest in human ALL5 cells assessed as accumulation at sub-G1 phase at 5 times antiproliferative IC50 after 48 hrs by propidium iodide staining based flow cytometry (reference value: 7.8%); assay type: functional
# [16] = Cell cycle arrest in human ALL5 cells assessed as accumulation at G2/M-phase at 5 times antiproliferative IC50 after 24 hrs by propidium iodide staining based flow cytometry (reference value: 7.98%); assay type: functional
# [17] = Cell cycle arrest in human ALL5 cells assessed as accumulation at G0/G1 phase at 5 times antiproliferative IC50 after 96 hrs by propidium iodide staining based flow cytometry (reference value: 69.8%); assay type: functional
# [18] = Cell cycle arrest in human ALL5 cells assessed as accumulation at sub-G1 phase at 5 times antiproliferative IC50 after 24 hrs by propidium iodide staining based flow cytometry (reference value: 6.07%); assay type: functional
# [19] = Cell cycle arrest in human ALL5 cells assessed as accumulation at S-phase at 5 times antiproliferative IC50 after 48 hrs by propidium iodide staining based flow cytometry (reference value: 9.82%); assay type: functional
# [20] = Cell cycle arrest in human ALL5 cells assessed as accumulation at G2/M-phase at 5 times antiproliferative IC50 after 48 hrs by propidium iodide staining based flow cytometry (reference value: 13.2%); assay type: functional
# [21] = Antiproliferative activity against human ALL5 cells after 120 hrs by MTT assay; assay type: functional, cell-based; settings: ALL5, 120 h
# Homo sapiens [22] = species: Homo sapiens; assay: Induction of apoptosis in human ALL5 cells assessed as increase in p53 expression at 9.5 uM up to 96 hrs by immunoblot analysis; assay type: functional, cell-based
# Homo sapiens [23] = species: Homo sapiens; assay: Induction of apoptosis in human ALL5 cells assessed as increase in cleaved PARP expression at 9.5 uM after 96 hrs by immunoblot analysis; assay type: functional, cell-based
# JIMT-1 [24] = assay: Antiproliferative activity against human JIMT1 cells at 100 ug/ml after 72 hrs by SRB assay relative to control; assay type: functional
# LoVo [25] = assay: Antiproliferative activity against human LoVo cells at 100 ug/ml after 72 hrs by SRB assay relative to control; assay type: functional
# Homo sapiens [26] = species: Homo sapiens; assay: Induction of apoptosis in human ALL5 cells assessed as increase in cleaved PARP expression at 9.5 uM up to 48 hrs by immunoblot analysis; assay type: functional, cell-based
# MCF-10A [27] = assay: Antiproliferative activity against human MCF10A cells after 72 hrs by SRB assay; assay type: cell-based
# [28] = Selectivity index, ratio of IC50 for human MCF10A cells to IC50 for human SK-BR-3 cells; assay type: toxicity; settings: MCF10A cells versus SK-BR-3 cells, read-out: Ratio IC50
# [29] = Selectivity index, ratio of IC50 for human MCF10A cells to IC50 for human MCF7 cells; assay type: toxicity; settings: MCF10A cells versus MCF7 cells, read-out: Ratio IC50
# [30] = Selectivity index, ratio of IC50 for human MCF10A cells to IC50 for human JIMT1 cells; assay type: toxicity; settings: MCF10A cells versus JIMT1 cells, read-out: Ratio IC50
# [31] = Selectivity index, ratio of IC50 for human MCF10A cells to IC50 for human LoVo cells; assay type: toxicity; settings: MCF10A cells versus LoVo cells, read-out: Ratio IC50
# [32] = Selectivity index, ratio of IC50 for human MCF10A cells to IC50 for human LoVo/DX cells; assay type: toxicity; settings: MCF10A cells versus LoVo/DX cells, read-out: Ratio IC50
# [33] = Selectivity index, ratio of IC50 for human MCF10A cells to IC50 for human ALL5 cells; assay type: toxicity; settings: MCF10A cells versus ALL5 cells, read-out: Ratio IC50
# Breast carcinoma cell [34] = assay: Ex vivo antitumor activity against patient derived breast cancer tissue assessed as decrease in tumor cell proliferation at 6.2 uM by Ki-67 staining based immunohistochemical analysis; assay type: functional; settings: Homo sapiens, TDE = time-dependent effect
# Breast carcinoma cell [35] = assay: Ex vivo antitumor activity against patient derived breast cancer tissue assessed as increase in number of dead tumor cells at 6.2 uM by H and E staining based immunohistochemical analysis; assay type: functional; settings: Homo sapiens, TDE = time-dependent effect
# Homo sapiens [36] = species: Homo sapiens; assay: Induction of apoptosis in human ALL5 cells assessed as increase in cleaved PARP expression at 0.2 uM up to 96 hrs by immunoblot analysis; assay type: functional, cell-based
# Homo sapiens [37] = species: Homo sapiens; assay: Induction of apoptosis in human ALL5 cells assessed as increase in p53 expression at 0.2 uM up to 96 hrs by immunoblot analysis; assay type: functional, cell-based
SMILES,IC50 (JIMT-1 [1]) [µM],Activity (MCF-10A [2]),IC50 (LoVo [4]) [µM],IC50 [5] [µM],Ratio IC50 [6],IC50 (MCF7) [µM],Activity [8] [%],Activity [9] [%],IC50 (SK-BR-3 [10]) [µM],Activity [11] [%],Activity [12] [%],Activity [13] [%],Activity [14] [%],Activity [15] [%],Activity [16] [%],Activity [17] [%],Activity [18] [%],Activity [19] [%],Activity [20] [%],IC50 [21] [µM],also measured
CC[C@@H](C(=O)[C@@H](C)[C@@H](O)[C@H](C)[C@@H]1O[C@@H]([C@@H](CC)C(=O)OCC(F)(F)F)CC[C@@H]1C)[C@H]1O[C@]2(C=C[C@@H](OC(C)=O)[C@]3(CC[C@@](C)([C@H]4CC[C@](O)(CC)[C@H](C)O4)O3)O2)[C@H](C)C[C@@H]1C,39,<= 50%,8.7,18,2.1,12,,,,,,,,,,,,,,,Activity (SK-BR-3 [3]): <=50%; Activity [7]: <=50%
CCOC(=O)O[C@@H]1C=C[C@]2(O[C@H]([C@@H](CC)C(=O)[C@@H](C)[C@@H](O)[C@H](C)[C@@H]3O[C@@H]([C@@H](CC)C(=O)NCCc4ccc(F)cc4)CC[C@@H]3C)[C@@H](C)C[C@H]2C)O[C@@]12CC[C@@](C)([C@H]1CC[C@](O)(CC)[C@H](C)O1)O2,7,<= 50%,4.7,6.5,1.4,3.9,4.95,1.94,9.9,86.4,82.5,27.5,1.35,7.78,6.54,69.4,6.39,1.02,4.85,3.7,
C#CCOC(=O)[C@H](CC)[C@H]1CC[C@H](C)[C@H]([C@@H](C)[C@H](O)[C@H](C)C(=O)[C@H](CC)[C@H]2O[C@]3(C=C[C@@H](OC(C)=O)[C@]4(CC[C@@](C)([C@H]5CC[C@](O)(CC)[C@H](C)O5)O4)O3)[C@H](C)C[C@@H]2C)O1,27,<= 50%,12,5.2,0.43,7.4,5.99,10.6,,73.5,80.2,26.8,5.06,9.68,9.12,57.7,5.15,5.62,11.5,2.6,Activity (SK-BR-3 [3]): <=50%
C#CCOC(=O)[C@H](CC)[C@H]1CC[C@H](C)[C@H]([C@@H](C)[C@H](O)[C@H](C)C(=O)[C@H](CC)[C@H]2O[C@]3(C=C[C@@H](OC(=O)OCC)[C@]4(CC[C@@](C)([C@H]5CC[C@](O)(CC)[C@H](C)O5)O4)O3)[C@H](C)C[C@@H]2C)O1,,<= 50%,,8.1,,38,5.6,7.59,,75.6,81.2,19.8,5.03,10.6,8.79,67.8,4.82,5.9,8.29,1.9,Activity (Homo sapiens [22]): Active; Activity (Homo sapiens [23]): Active; Activity (JIMT-1 [24]): <=50%; Activity (LoVo [25]): <=50%; Activity (SK-BR-3 [3]): <=50%; Activity (Homo sapiens [26]): inactive
C#CCNC(=O)[C@H](CC)[C@H]1CC[C@H](C)[C@H]([C@@H](C)[C@H](O)[C@H](C)C(=O)[C@H](CC)[C@H]2O[C@]3(C=C[C@@H](O)[C@]4(CC[C@@](C)([C@H]5CC[C@](O)(CC)[C@H](C)O5)O4)O3)[C@H](C)C[C@@H]2C)O1,29,,7.7,3.1,0.4,10,,,31,,,,,,,,,,,,IC50 (MCF-10A [27]): 62 µM; selectivity ratio [28]: 2; selectivity ratio [29]: 6.2; selectivity ratio [30]: 2.1; Activity [7]: <=50%; selectivity ratio [31]: 8.1; selectivity ratio [32]: 20
CC[C@@H](C(=O)[C@@H](C)[C@@H](O)[C@H](C)[C@@H]1O[C@@H]([C@@H](CC)C(=O)O)CC[C@@H]1C)[C@H]1O[C@]2(C=C[C@@H](O)[C@]3(CC[C@@](C)([C@H]4CC[C@](O)(CC)[C@H](C)O4)O3)O2)[C@H](C)C[C@@H]1C [SALINOMYCIN],1.3,,0.44,0.69,1.6,1.5,,,0.89,,,,,,,,,,,2.4,selectivity ratio [33]: 19; IC50 (MCF-10A [27]): 46 µM; Activity (Breast carcinoma cell [34]): Tde; selectivity ratio [28]: 52; selectivity ratio [29]: 31; selectivity ratio [30]: 35; Activity (Breast carcinoma cell [35]): Tde; selectivity ratio [31]: 105; selectivity ratio [32]: 67
C#CCOC(=O)[C@H](CC)[C@H]1CC[C@H](C)[C@H]([C@@H](C)[C@H](O)[C@H](C)C(=O)[C@H](CC)[C@H]2O[C@]3(C=C[C@@H](OC(=O)NCC)[C@]4(CC[C@@](C)([C@H]5CC[C@](O)(CC)[C@H](C)O5)O4)O3)[C@H](C)C[C@@H]2C)O1,7.4,<= 50%,5.2,3.4,0.65,5,5.16,10.9,25,61.1,78.8,43.6,3.67,19.6,9.7,42,6.58,5.8,13.8,6.9,
COc1cccc2c1C(=O)c1c(O)c3c(c(O)c1C2=O)C[C@@](O)(C(=O)CO)C[C@@H]3O[C@H]1C[C@H](N)[C@H](O)[C@H](C)O1 [DOXORUBICIN],0.59,,0.24,10,,0.26,,2.16,0.37,66.8,78.2,62.7,,27.4,8.96,31.6,8.94,3.23,2.76,0.04,IC50 (MCF-10A [27]): 0.58 µM; Activity (Homo sapiens [36]): Active; Activity (Homo sapiens [37]): Active
